Marks after values point to notes of the source that are not given here.
Test: Lactose content of produced milk in sorbitol feeding trials
Format: in vivo, Holstein cows
Conditions: for Lactose in Produced Milk: Pre-Partum Trial #1 (75/0/0 g/day in wk −3..−1/+1..+4/+5..+8)
Method: To determine the weight percent lactose, wet basis, in a liquid sample, the weight of the liquid sample is first determined. The actual weight of lactose in the liquid sample may then be determined using analysis kit number 176-303, that is available from Boehringer-Mannheim of Indianapolis, Ind. in accordance with the procedural instructions included with analysis kit number 176-303. The weight percent lactose, wet basis, in the liquid sample is then calculated by dividing the actual weight of lactose in the liquid sample by the actual weight of the liquid sample. Each cow of each of the six different trials (Control Trial #1, Control Trial #2, Pre-Partum Trial #1, Pre-Partum Trial #2, Pre/Post Trial #1, and Pre/Post Trial #2) was milked three times daily and the weight of produced milk by each cow was recorded at each milking. The milk from each cow was sampled once per week (⅓ of the sample volume from each of the three milkings occurring on the weekly milk sampling day) and was analyzed for true protein, total fat, lactose, and total solids, as detailed in the property determination and characterization techniques presented above. Additionally, samples of blood were periodically obtained from each cow during the four trials (Control Trial 2, Pre-Partum Trial #2, Pre/Post Trial #1, and Pre/Post Trial #2) encompassed in Example Two and were analyzed for non-esterified fatty acid (NEFA) content as detailed in the property determination and characterization techniques presented above. No NEFA analysis was conducted on the cows employed in Control Trial #1 or Pre-Partum Trial #1 that are the subject of Example One. Example One includes Control Trial #1 and Pre-Partum Trial #1. Both primiparious cows and multiparious cows were included in Control Trial #1 and Pre-Partum Trial #1. Five primiparious cows and fifteen multiparious cows were included in Control Trial #1; likewise, five primiparious cows and fifteen multiparious cows were included in Pre-Partum Trial #1. All cows included in Control Trial #1 and Pre-Partum Trial #1 were Holsteins. Example Two includes Control Trial #2, Pre-Partum Trial #2, Pre/Post Trial #1, and Pre/Post Trial #2. Only multiparious, Holstein cows were included in Control Trial #2, Pre-Partum Trial #1, Pre/Post Trial #1, and Pre/Post Trial #2. Eighteen multiparious cows were included in both Control Trial #2 and Pre-Partum Trial #2, while sixteen multiparious cows were included in Pre/Post Trial #1 and seventeen multiparious cows were included in Pre/Post Trial #2.

What does the source list for `OC[C@@H](O)[C@@H](O)[C@H](O)[C@@H](O)CO` [sorbitol]?
Lactose in Produced Milk (multiparious cows, weeks +1 through +8): 4.77 wt %; Lactose in Produced Milk (primiparious cows, weeks +1 through +8): 4.98 wt %; increase in lactose concentration in the produced milk (Pre-Partum Trial #1 (75 g/day wk −3..−1 only) versus Control Trial #1, primiparious cows, weeks +1 through +8): 5.1%; Lactose Content of Produced Milk (Pre-Partum Trial #2 (75/0/100 g/day in wk −3..−1/+1..+4/+5..+8), multiparious cows, week +1): 4.42 weight %; Lactose Content of Produced Milk (Pre-Partum Trial #2 (75/0/100 g/day in wk −3..−1/+1..+4/+5..+8), multiparious cows, week +2): 4.69^a weight %; Lactose Content of Produced Milk (Pre-Partum Trial #2 (75/0/100 g/day in wk −3..−1/+1..+4/+5..+8), multiparious cows, week +3): 4.74^a weight %; Lactose Content of Produced Milk (Pre-Partum Trial #2 (75/0/100 g/day in wk −3..−1/+1..+4/+5..+8), multiparious cows, week +4): 4.75^a weight %; Lactose Content of Produced Milk (Pre-Partum Trial #2 (75/0/100 g/day in wk −3..−1/+1..+4/+5..+8), multiparious cows, week +5): 4.74^a weight %; Lactose Content of Produced Milk (Pre-Partum Trial #2 (75/0/100 g/day in wk −3..−1/+1..+4/+5..+8), multiparious cows, week +6): 4.75^a weight %; Lactose Content of Produced Milk (Pre-Partum Trial #2 (75/0/100 g/day in wk −3..−1/+1..+4/+5..+8), multiparious cows, week +7): 4.77^a weight %; Lactose Content of Produced Milk (Pre-Partum Trial #2 (75/0/100 g/day in wk −3..−1/+1..+4/+5..+8), multiparious cows, week +8): 4.76^a weight %; Lactose Content of Produced Milk (Pre-Partum Trial #2 (75/0/100 g/day in wk −3..−1/+1..+4/+5..+8), multiparious cows, weeks +1 through +4): 4.65 weight %; Lactose Content of Produced Milk (Pre-Partum Trial #2 (75/0/100 g/day in wk −3..−1/+1..+4/+5..+8), multiparious cows, weeks +5 through +8): 4.76^a weight %; Lactose Content of Produced Milk (Pre/Post Trial #1 (150/125/100 g/day in wk −3..−1/+1..+4/+5..+8), multiparious cows, week +1): 4.55 weight %; Lactose Content of Produced Milk (Pre/Post Trial #1 (150/125/100 g/day in wk −3..−1/+1..+4/+5..+8), multiparious cows, week +1, two-trial comparison with Control Trial #2 (Table 25)): 4.55 weight %; Lactose Content of Produced Milk (Pre/Post Trial #1 (150/125/100 g/day in wk −3..−1/+1..+4/+5..+8), multiparious cows, week +2): 4.79^ab weight %; Lactose Content of Produced Milk (Pre/Post Trial #1 (150/125/100 g/day in wk −3..−1/+1..+4/+5..+8), multiparious cows, week +2, two-trial comparison with Control Trial #2 (Table 25)): 4.79 weight %; Lactose Content of Produced Milk (Pre/Post Trial #1 (150/125/100 g/day in wk −3..−1/+1..+4/+5..+8), multiparious cows, week +3): 4.87^ab weight %; Lactose Content of Produced Milk (Pre/Post Trial #1 (150/125/100 g/day in wk −3..−1/+1..+4/+5..+8), multiparious cows, week +3, two-trial comparison with Control Trial #2 (Table 25)): 4.87 weight %; Lactose Content of Produced Milk (Pre/Post Trial #1 (150/125/100 g/day in wk −3..−1/+1..+4/+5..+8), multiparious cows, week +4): 4.90^b weight %; Lactose Content of Produced Milk (Pre/Post Trial #1 (150/125/100 g/day in wk −3..−1/+1..+4/+5..+8), multiparious cows, week +4, two-trial comparison with Control Trial #2 (Table 25)): 4.90 weight %; Lactose Content of Produced Milk (Pre/Post Trial #1 (150/125/100 g/day in wk −3..−1/+1..+4/+5..+8), multiparious cows, week +5): 4.93^c weight %; Lactose Content of Produced Milk (Pre/Post Trial #1 (150/125/100 g/day in wk −3..−1/+1..+4/+5..+8), multiparious cows, week +5, two-trial comparison with Control Trial #2 (Table 25)): 4.93 weight %; Lactose Content of Produced Milk (Pre/Post Trial #1 (150/125/100 g/day in wk −3..−1/+1..+4/+5..+8), multiparious cows, week +6): 4.90^ab weight %; Lactose Content of Produced Milk (Pre/Post Trial #1 (150/125/100 g/day in wk −3..−1/+1..+4/+5..+8), multiparious cows, week +6, two-trial comparison with Control Trial #2 (Table 25)): 4.90 weight %; Lactose Content of Produced Milk (Pre/Post Trial #1 (150/125/100 g/day in wk −3..−1/+1..+4/+5..+8), multiparious cows, week +7): 4.90^ab weight %; Lactose Content of Produced Milk (Pre/Post Trial #1 (150/125/100 g/day in wk −3..−1/+1..+4/+5..+8), multiparious cows, week +7, two-trial comparison with Control Trial #2 (Table 25)): 4.90 weight %; Lactose Content of Produced Milk (Pre/Post Trial #1 (150/125/100 g/day in wk −3..−1/+1..+4/+5..+8), multiparious cows, week +8): 4.84^ab weight %; Lactose Content of Produced Milk (Pre/Post Trial #1 (150/125/100 g/day in wk −3..−1/+1..+4/+5..+8), multiparious cows, week +8, two-trial comparison with Control Trial #2 (Table 25)): 4.84 weight %; Lactose Content of Produced Milk (Pre/Post Trial #1 (150/125/100 g/day in wk −3..−1/+1..+4/+5..+8), multiparious cows, weeks +1 through +4): 4.78 weight %; Lactose Content of Produced Milk (Pre/Post Trial #1 (150/125/100 g/day in wk −3..−1/+1..+4/+5..+8), multiparious cows, weeks +1 through +4, two-trial comparison with Control Trial #2 (Table 25)): 4.78 weight %; Lactose Content of Produced Milk (Pre/Post Trial #1 (150/125/100 g/day in wk −3..−1/+1..+4/+5..+8), multiparious cows, weeks +1 through +8): 4.83^ab weight %; Lactose Content of Produced Milk (Pre/Post Trial #1 (150/125/100 g/day in wk −3..−1/+1..+4/+5..+8), multiparious cows, weeks +1 through +8, two-trial comparison with Control Trial #2 (Table 25)): 4.83 weight %; Lactose Content of Produced Milk (Pre/Post Trial #1 (150/125/100 g/day in wk −3..−1/+1..+4/+5..+8), multiparious cows, weeks +5 through +8): 4.89^ab weight %; Lactose Content of Produced Milk (Pre/Post Trial #1 (150/125/100 g/day in wk −3..−1/+1..+4/+5..+8), multiparious cows, weeks +5 through +8, two-trial comparison with Control Trial #2 (Table 25)): 4.89 weight %; increase in lactose concentration in milk (Pre/Post Trial #1 (150/125/100 g/day) versus Control Trial #2, multiparious cows, weeks +1 through +4 (Table 25)): more than 2.5%; increase in lactose concentration in milk (Pre/Post Trial #1 (150/125/100 g/day) versus Control Trial #2, multiparious cows, weeks +1 through +8 (Table 25)): 1.9%; increase in lactose concentration in milk (Pre/Post Trial #1 (150/125/100 g/day) versus Control Trial #2, multiparious cows, weeks +5 through +8 (Table 25)): more than 2.5%; Lactose Content of Produced Milk (Pre/Post Trial #2 (75/75/100 g/day in wk −3..−1/+1..+4/+5..+8), multiparious cows, week +1): 4.47 weight %; Lactose Content of Produced Milk (Pre/Post Trial #2 (75/75/100 g/day in wk −3..−1/+1..+4/+5..+8), multiparious cows, week +2): 4.84^b weight %; Lactose Content of Produced Milk (Pre/Post Trial #2 (75/75/100 g/day in wk −3..−1/+1..+4/+5..+8), multiparious cows, week +3): 4.92^b weight %; Lactose Content of Produced Milk (Pre/Post Trial #2 (75/75/100 g/day in wk −3..−1/+1..+4/+5..+8), multiparious cows, week +4): 4.90^b weight %; Lactose Content of Produced Milk (Pre/Post Trial #2 (75/75/100 g/day in wk −3..−1/+1..+4/+5..+8), multiparious cows, week +5): 4.90^bc weight %; Lactose Content of Produced Milk (Pre/Post Trial #2 (75/75/100 g/day in wk −3..−1/+1..+4/+5..+8), multiparious cows, week +6): 4.92^b weight %; Lactose Content of Produced Milk (Pre/Post Trial #2 (75/75/100 g/day in wk −3..−1/+1..+4/+5..+8), multiparious cows, week +7): 4.96^b weight %; Lactose Content of Produced Milk (Pre/Post Trial #2 (75/75/100 g/day in wk −3..−1/+1..+4/+5..+8), multiparious cows, week +8): 4.93^b weight %; Lactose Content of Produced Milk (Pre/Post Trial #2 (75/75/100 g/day in wk −3..−1/+1..+4/+5..+8), multiparious cows, weeks +1 through +4): 4.78 weight %; Lactose Content of Produced Milk (Pre/Post Trial #2 (75/75/100 g/day in wk −3..−1/+1..+4/+5..+8), multiparious cows, weeks +1 through +8): 4.85^b weight %; greater lactose concentration in milk (Pre/Post Trial #2 (75/75/100 g/day) versus Pre-Partum Trial #2 (75/0/100 g/day), multiparious cows, weeks +1 through +8): 3.0%; increase in lactose concentration in milk (average of means of Pre-Partum Trial #2, Pre/Post Trial #1 and Pre/Post Trial #2 versus Control Trial #2, multiparious cows, weeks +1 through +4): 1.7%; increase in lactose concentration in milk (average of means of Pre-Partum Trial #2, Pre/Post Trial #1 and Pre/Post Trial #2 versus Control Trial #2, multiparious cows, weeks +1 through +8): 1.6%

Source: patent US9179694B2, “Method and composition for enhancing milk production and milk component concentrations” (PURINA ANIMAL NUTRITION LLC, priority 2003, dated 2015)
